# Source: PMC9090415, “Discovery of small molecule inhibitors of Plasmodium falciparum apicoplast DNA polymerase” (Journal of Enzyme Inhibition and Medicinal Chemistry, 2022)
# Molecular target: P. falciparum apicoplast DNA polymerase (Pf-apPOL) (Plasmodium falciparum, UniProt Q8ILY1)
# Test: Fluorescence-based high-throughput DNA polymerase assay (molecular beacon), primary screen and dose-response
# Format: biochemical
# Summary of the method: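 Single-point screening used 10 µM compound with 20 nM polymerase, 20 nM hairpin substrate and 6 µM dNTPs for 90 min at 25 °C. Confirmatory titrations (2.5–80 µM) followed fluorescence at three times, and IC50 was derived from a fit including a cooperativity term n.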
# P. falciparum apicoplast DNA polymerase (Pf-apPOL), sequence (Q8ILY1 entry or part of it): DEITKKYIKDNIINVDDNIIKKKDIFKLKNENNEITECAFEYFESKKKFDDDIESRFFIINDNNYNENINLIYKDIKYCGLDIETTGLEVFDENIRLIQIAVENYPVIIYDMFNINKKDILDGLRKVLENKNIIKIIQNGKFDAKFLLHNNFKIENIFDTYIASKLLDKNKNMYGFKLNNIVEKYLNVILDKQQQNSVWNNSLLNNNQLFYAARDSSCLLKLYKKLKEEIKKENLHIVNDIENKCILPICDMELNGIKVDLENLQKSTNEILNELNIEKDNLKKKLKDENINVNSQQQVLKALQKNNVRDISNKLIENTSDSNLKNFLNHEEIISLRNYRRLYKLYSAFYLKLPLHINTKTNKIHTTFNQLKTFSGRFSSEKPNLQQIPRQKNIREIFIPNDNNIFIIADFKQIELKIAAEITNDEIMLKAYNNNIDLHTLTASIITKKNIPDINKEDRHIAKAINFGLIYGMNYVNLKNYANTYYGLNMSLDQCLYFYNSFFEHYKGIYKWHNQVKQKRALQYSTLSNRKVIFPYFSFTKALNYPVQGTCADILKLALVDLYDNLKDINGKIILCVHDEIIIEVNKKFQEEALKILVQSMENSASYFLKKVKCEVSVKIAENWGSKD
smiles,measurement,setting,value
"Cn1nc(C(=O)N2CCc3c(nc4cc(-c5ccccc5)[nH]n4c3=O)C2)c2ccccc21 [Molecule 18, O=c1c2CCN(Cc2nc2n1[nH]c(c2)c1ccccc1)C(=O)c1nn(c2c1cccc2)C]",DNA Pol,"186 hits, value of the hit list (primary screen); unit not given; 90 min, 10 µM",46
same,% inhibition Apo pol 10',DRC-1; 10'; concentration 2.5,9%
same,% inhibition Apo pol 10',DRC-1; 10'; concentration 5,28%
same,% inhibition Apo pol 10',DRC-1; 10'; concentration 10,66%
same,% inhibition Apo pol 10',DRC-1; 10'; concentration 20,74%
same,% inhibition Apo pol 10',DRC-1; 10'; concentration 40,72%
same,% inhibition Apo pol 10',DRC-1; 10'; concentration 80,55%
same,% inhibition Apol 90',DRC-1; 90'; concentration 2.5,1.64%
same,% inhibition Apol 90',DRC-1; 90'; concentration 5,16%
same,% inhibition Apol 90',DRC-1; 90'; concentration 10,49%
same,% inhibition Apol 90',DRC-1; 90'; concentration 20,59%
same,% inhibition Apol 90',DRC-1; 90'; concentration 40,58%
same,% inhibition Apol 90',DRC-1; 90'; concentration 80,54%
same,% inhibition apPOL 180',DRC-1; 180'; concentration 2.5,-3.8%
same,% inhibition apPOL 180',DRC-1; 180'; concentration 5,6%
same,% inhibition apPOL 180',DRC-1; 180'; concentration 10,33%
same,% inhibition apPOL 180',DRC-1; 180'; concentration 20,39%
same,% inhibition apPOL 180',DRC-1; 180'; concentration 40,34%
same,% inhibition apPOL 180',DRC-1; 180'; concentration 80,34%
same,% inhibition Apo pol 5',"DRC-2, 5', concentration 2.5",5.33%
same,% inhibition Apo pol 5',"DRC-2, 5', concentration 5",20%
same,% inhibition Apo pol 5',"DRC-2, 5', concentration 10",36%
same,% inhibition Apo pol 5',"DRC-2, 5', concentration 20",45%
same,% inhibition Apo pol 5',"DRC-2, 5', concentration 40",43%
same,% inhibition Apo pol 5',"DRC-2, 5', concentration 80",30%
same,% inhibition Apol 40',"DRC-2, 40', concentration 2.5",4%
same,% inhibition Apol 40',"DRC-2, 40', concentration 5",23%
same,% inhibition Apol 40',"DRC-2, 40', concentration 10",40%
same,% inhibition Apol 40',"DRC-2, 40', concentration 20",54%
same,% inhibition Apol 40',"DRC-2, 40', concentration 40",56%
same,% inhibition Apol 40',"DRC-2, 40', concentration 80",47%
same,% inhibition ApPOL 90',"DRC-2, 90', concentration 2.5",4.38%
same,% inhibition ApPOL 90',"DRC-2, 90', concentration 5",23%
same,% inhibition ApPOL 90',"DRC-2, 90', concentration 10",39%
same,% inhibition ApPOL 90',"DRC-2, 90', concentration 20",54%
same,% inhibition ApPOL 90',"DRC-2, 90', concentration 40",55%
same,% inhibition ApPOL 90',"DRC-2, 90', concentration 80",48%
same,% inhibition apPOL 180',"DRC-2, 180', concentration 2.5",0.809%
same,% inhibition apPOL 180',"DRC-2, 180', concentration 5",16%
same,% inhibition apPOL 180',"DRC-2, 180', concentration 10",29%
same,% inhibition apPOL 180',"DRC-2, 180', concentration 20",45%
same,% inhibition apPOL 180',"DRC-2, 180', concentration 40",45%
same,% inhibition apPOL 180',"DRC-2, 180', concentration 80",37%
same,% inhibition Apo pol 5',DRC-2; 5'; concentration 20,45%
same,% inhibition Apol 40',DRC-2; 40'; concentration 5,23%
same,% inhibition Apol 40',DRC-2; 40'; concentration 20,54%
same,% inhibition ApPOL 90',DRC-2; 90'; concentration 5,23%
same,% inhibition ApPOL 90',DRC-2; 90'; concentration 10,39%
same,% inhibition ApPOL 90',DRC-2; 90'; concentration 20,54%
same,% inhibition ApPOL 90',DRC-2; 90'; concentration 40,55%
same,% inhibition apPOL 180',DRC-2; 180'; concentration 5,16%
same,% inhibition apPOL 180',DRC-2; 180'; concentration 20,45%
same,% inhibition apPOL 180',DRC-2; 180'; concentration 40,45%
same,% inhibition Apo pol 10',first dose-response; 10'; concentration 80,55%
same,% inhibition Apol 90',first dose-response; 90'; concentration 5,16%
same,% inhibition Apol 90',first dose-response; 90'; concentration 80,54%
same,% inhibition apPOL 180',first dose-response; 180'; concentration 20,39%
same,% inhibition apPOL 180',first dose-response; 180'; concentration 40,34%
same,% inhibition apPOL 180',first dose-response; 180'; concentration 80,34%
same,DNA Pol,"primary screen value, 'DNA Pol' only; 90 min, 10 µM",46
CCCCCc1c2c(cc(O)c1C(=O)O)OC(=O)c1c(cc(OC)cc1C(=O)CCCC)O2 [Molecule 24],IC50,"supplemental file 2, sheet IC50 nontoxic compounds; Pf-apPOL",9.31 µM
